Laboratory results reported in the NIST ThermoML archive (doi:10.1016/j.jct.2014.05.016).

Experiment: xn = mol fraction of the nth substance listed
Conditions: 100 kPa, Liquid; for mass density: Vibrating tube method; for viscosity: Concentric cylinders viscometry

CCCC[n+]1ccccc1.F[B-](F)(F)F [1-butylpyridinium tetrafluoroborate] + CCCCn1cc[n+](C)c1.F[B-](F)(F)F
Conditions | mass density [kg/m3] | viscosity [mPa·s]
318.15 K, x2 = 0 | 1199.4 | –
318.15 K, x2 = 0.1007 | 1198.1 | –
318.15 K, x2 = 0.2004 | 1197 | –
318.15 K, x2 = 0.3001 | 1195.7 | –
318.15 K, x2 = 0.4004 | 1194.4 | –
318.15 K, x2 = 0.5009 | 1193.1 | –
318.15 K, x2 = 0.6004 | 1191.8 | –
318.15 K, x2 = 0.7013 | 1190.6 | –
318.15 K, x2 = 0.8007 | 1189.1 | –
318.15 K, x2 = 0.8987 | 1187.8 | –
323.15 K, x2 = 0 | 1196 | 47.29
323.15 K, x2 = 0.1007 | 1194.7 | –
323.15 K, x2 = 0.1009 | – | 46.21
323.15 K, x2 = 0.2004 | 1193.5 | –
323.15 K, x2 = 0.2005 | – | 44.95
323.15 K, x2 = 0.3001 | 1192.3 | –
323.15 K, x2 = 0.3003 | – | 43.7
323.15 K, x2 = 0.4001 | – | 42.46
323.15 K, x2 = 0.4004 | 1190.9 | –
323.15 K, x2 = 0.4999 | – | 41.32
323.15 K, x2 = 0.5009 | 1189.6 | –
323.15 K, x2 = 0.6004 | 1188.3 | –
323.15 K, x2 = 0.6007 | – | 40.18
323.15 K, x2 = 0.7004 | – | 39.01
323.15 K, x2 = 0.7013 | 1187 | –
323.15 K, x2 = 0.8001 | – | 37.96
323.15 K, x2 = 0.8007 | 1185.6 | –
323.15 K, x2 = 0.8987 | 1184.3 | –
323.15 K, x2 = 0.8998 | – | 36.87
328.15 K, x2 = 0 | 1192.6 | 38.71
328.15 K, x2 = 0.1007 | 1191.3 | –
328.15 K, x2 = 0.1009 | – | 37.89
328.15 K, x2 = 0.2004 | 1190.1 | –
328.15 K, x2 = 0.2005 | – | 36.94
328.15 K, x2 = 0.3001 | 1188.8 | –
328.15 K, x2 = 0.3003 | – | 36
328.15 K, x2 = 0.4001 | – | 35.04
328.15 K, x2 = 0.4004 | 1187.5 | –
328.15 K, x2 = 0.4999 | – | 34.16
328.15 K, x2 = 0.5009 | 1186.2 | –
328.15 K, x2 = 0.6004 | 1184.9 | –
328.15 K, x2 = 0.6007 | – | 33.29
328.15 K, x2 = 0.7004 | – | 32.42
328.15 K, x2 = 0.7013 | 1183.5 | –
328.15 K, x2 = 0.8001 | – | 31.6
328.15 K, x2 = 0.8007 | 1182.1 | –
328.15 K, x2 = 0.8987 | 1180.8 | –
328.15 K, x2 = 0.8998 | – | 30.76
333.15 K, x2 = 0 | 1189.2 | 32.12
333.15 K, x2 = 0.1007 | 1188 | –
333.15 K, x2 = 0.1009 | – | 31.48
333.15 K, x2 = 0.2004 | 1186.7 | –
333.15 K, x2 = 0.2005 | – | 30.81
333.15 K, x2 = 0.3001 | 1185.4 | –
333.15 K, x2 = 0.3003 | – | 30.05
333.15 K, x2 = 0.4001 | – | 29.3
333.15 K, x2 = 0.4004 | 1184 | –
333.15 K, x2 = 0.4999 | – | 28.66
333.15 K, x2 = 0.5009 | 1182.7 | –
333.15 K, x2 = 0.6004 | 1181.4 | –
333.15 K, x2 = 0.6007 | – | 27.94
333.15 K, x2 = 0.7004 | – | 27.27
333.15 K, x2 = 0.7013 | 1180 | –
333.15 K, x2 = 0.8001 | – | 26.68
333.15 K, x2 = 0.8007 | 1178.6 | –
333.15 K, x2 = 0.8987 | 1177.3 | –
333.15 K, x2 = 0.8998 | – | 26.05
338.15 K, x2 = 0 | 1185.8 | 26.98
338.15 K, x2 = 0.1007 | 1184.6 | –
338.15 K, x2 = 0.1009 | – | 26.47
338.15 K, x2 = 0.2004 | 1183.3 | –
338.15 K, x2 = 0.2005 | – | 25.93
338.15 K, x2 = 0.3001 | 1182 | –
338.15 K, x2 = 0.3003 | – | 25.37
338.15 K, x2 = 0.4001 | – | 24.83
338.15 K, x2 = 0.4004 | 1180.6 | –
338.15 K, x2 = 0.4999 | – | 24.25
338.15 K, x2 = 0.5009 | 1179.3 | –
338.15 K, x2 = 0.6004 | 1178 | –
338.15 K, x2 = 0.6007 | – | 23.7
338.15 K, x2 = 0.7004 | – | 23.18
338.15 K, x2 = 0.7013 | 1176.6 | –
338.15 K, x2 = 0.8001 | – | 22.68
338.15 K, x2 = 0.8007 | 1175.2 | –
338.15 K, x2 = 0.8987 | 1173.9 | –
338.15 K, x2 = 0.8998 | – | 22.23
343.15 K, x2 = 0 | 1182.5 | 22.97
343.15 K, x2 = 0.1007 | 1181.2 | –
343.15 K, x2 = 0.1009 | – | 22.54
343.15 K, x2 = 0.2004 | 1179.9 | –
343.15 K, x2 = 0.2005 | – | 22.07
343.15 K, x2 = 0.3001 | 1178.6 | –
343.15 K, x2 = 0.3003 | – | 21.64
343.15 K, x2 = 0.4001 | – | 21.16
343.15 K, x2 = 0.4004 | 1177.3 | –
343.15 K, x2 = 0.4999 | – | 20.75
343.15 K, x2 = 0.5009 | 1175.9 | –
343.15 K, x2 = 0.6004 | 1174.5 | –
343.15 K, x2 = 0.6007 | – | 20.32
343.15 K, x2 = 0.7004 | – | 19.9
343.15 K, x2 = 0.7013 | 1173.2 | –
343.15 K, x2 = 0.8001 | – | 19.49
343.15 K, x2 = 0.8007 | 1171.8 | –
343.15 K, x2 = 0.8987 | 1170.4 | –
343.15 K, x2 = 0.8998 | – | 19.09
